Measured values published in patent US11760744B2, “Fused ring compounds” (Genentech, Inc., priority 2018, dated 2023).

Legend:
[1] = target: T1, K-Ras G12C (Homo sapiens, UniProt P01116, G12C); assay: Western blot assay for in cell alkylation of K-Ras G12C (HCC1171 cells); type: cell-based; parameters: endogenous in cells; host or cells: HCC1171; settings: 18 hours at 37° C., 7 point dose response
Experimental: Western Blot Assay for in Cell Alkylation of K-Ras G12C
HCC1171 cells were maintained in RPMI1640 supplemented with 10% FBS. Cells were plated in a 96-well plate at 20,000 cells/well and the following day compounds were added to the cells. After 18 hours at 37° C., cells were lysed in RIPA buffer (Sigma R0278) with 0.5% SDS and protease/phosphatase inhibitor cocktail. After through mixing to enable complete lysis, the lysates were cleared by centrifugation before 20 μl was transferred from each well and combined with loading buffer and reducing agent. After heating for 10 minutes at 95° C., 15 μl of each sample was loaded onto a 4-20% Tris-Glycine gel and electrophoresed at 110V for 165 minutes in SDS-PAGE running buffer. Gels were transferred to a nitrocellulose membrane, blocked for 1 hour and stained overnight at 4° C. with primary antibody against K-Ras (polyclonal Proteintech 12063-1-AP). The membrane was then washed thoroughly and counterstained with anti-rabbit IRDye 800CW (LI-COR 926-32211) for one hour at room temperature. After final washes, the membrane was imaged on a LI-COR Odyssey CLx at medium resolution. Alkylated K-Ras was visible by an electrophoretic shift from unmodified K-Ras. To quantify this affect, the LICOR software was used to draw a rectangle over alkylated and unalkylated bands for each well and measured the total fluorescent intensity (FI) in each of these bands. The following formula was then used to calculate % alkylation: FI(alkylated)/(FI(alkylated)+FI(unalkylated))*100 for each well.
A 7 point dose response curve was used to determine the IC50 for each compound. Cell alkylation data are presented below in Table 2.
Target sequence in this assay (P01116 1-188 isoform P01116-2 G12C): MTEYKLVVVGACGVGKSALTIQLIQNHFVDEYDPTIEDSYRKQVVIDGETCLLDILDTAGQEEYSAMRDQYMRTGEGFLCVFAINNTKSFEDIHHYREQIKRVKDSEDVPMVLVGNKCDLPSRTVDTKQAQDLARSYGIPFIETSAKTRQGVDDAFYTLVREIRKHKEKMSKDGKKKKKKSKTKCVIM

[2] = target: T1, K-Ras G12C; assay: K-Ras G12C, SOS1, Raf RBD HTRF assay for inhibition of GTP exchange; type: biochemical; parameters: K-Ras G12C (residues 2-188) and SOS1 (residues 564-1049) had N-terminal 6-His; made in house; host or cells: E. coli; settings: 18 hours preincubation with K-Ras G12C at room temperature; SOS1-mediated GTP exchange
Experimental: K-Ras G12C, SOS1, Raf RBD Homogeneous Time Resolved Fluorescence (HTRF) Assay for Inhibition of GTP Exchange
After 18 hours at room temperature, the SOS1 GTP exchange factor (1.67 nM during exchange, 1.25 nM final) was added to initiate nucleotide exchange to GTP (200 μM during exchange, 150 μM final). The level of GTP exchange was assessed by addition of a Ras binding domain derived from C-Raf and the HTRF detection antibodies Tb-anti-FLAG and D2-anti-his (Cis-Bio) at 50 nM, 1 nM and 12.5 nM, respectively. After 2 hours, the ratio of 665 nm to 615 nm emission with 320 nm excitation was measured on an Envision plate reader (Perkin Elmer).
The final reaction volume was 20 μl in a ProxiPlate-384F Plus (Perkin Elmer), in buffer containing 20 mM HEPES, 150 mM NaCl, 1 mM MgCl2, 0.1% BSA, 0.03% Tween-20 and 1 mM DTT. […] HTRF data are presented below in Table 2.
Target sequence in this assay (P01116 2-188 isoform P01116-2 G12C): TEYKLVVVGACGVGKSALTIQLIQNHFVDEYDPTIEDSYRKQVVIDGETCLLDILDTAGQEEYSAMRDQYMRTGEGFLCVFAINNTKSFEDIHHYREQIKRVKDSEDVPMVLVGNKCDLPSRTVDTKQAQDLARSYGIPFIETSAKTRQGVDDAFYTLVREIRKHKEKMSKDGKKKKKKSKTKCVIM

| Structure (SMILES) | EC50 [1] | IC50 [2] |
| --- | --- | --- |
| C=C(F)C(=O)N1CCN(c2nc(OC[C@@H]3CCCN3C)nc3c2CCC(c2cccc4ccccc24)C3)CC1CC#N (single isomer, unassigned) [Example 47a] | 530 nM | 150 nM |
| C=CC(=O)N1CCN(c2nc(OC[C@@H]3C[C@@H](F)CN3C)nc3c2C[C@H](CC)[C@@H](c2c(F)c(N)cc(C)c2C(F)(F)F)C3)[C@@H](C)C1 (single isomer, unassigned) [Example 37b] | 1000 nM | 2200 nM |
| C=C(F)C(=O)N1CCN(c2nc(OC[C@@H]3CCCN3C)nc3c2CCC(c2cc(O)cc4ccccc24)C3)CC1CC#N (mixture of isomers) [Example 61a, 2-(1-(2-fluoroacryloyl)-4-(7-(3-hydroxynaphthalen-1-yl)-2-(((S)-1-methylpyrrolidin-2-yl)methoxy)-5,6,7,8-tetrahydroquinazolin-4-yl)piperazin-2-yl)acetonitrile] | 16 nM | 38 nM |
| C=CC(=O)N1CCN(c2nc(OC[C@@H]3CCCN3C)nc3c2CC[C@@H](c2cc(O)cc4ccccc24)C3)C[C@@H]1CC#N (single isomer, unassigned) [Example 58d] | 6.3 nM | 24 nM |
| C=CC(=O)N1CCN(c2nc(OC[C@@H]3CCCN3C)nc3c2C[C@@H](C(C)C)[C@H](c2nc(N)cc(C)c2C(F)(F)F)C3)[C@@H](C)C1 (single isomer, unassigned) [Example 33a] | 51 nM | < 10 nM |
| C=CC(=O)N1CCN(c2ncnc3c2C[C@@H](C)[C@@H](c2nc(N)cc(C)c2C(F)(F)F)C3)CC1 (single isomer, unassigned) [Example 1a] | 10000 nM | > 50000 nM |
| C=CC(=O)N1CCN(c2ncnc3c2CC[C@H](c2c(C)c(C)cc4[nH]cnc24)C3)CC1 (single isomer, unassigned) [Example 10b] | 1000 nM | 270 nM |
| C=CC(=O)N1CCN(c2nc(OC[C@@H]3CCCN3C)nc3c2C[C@H](C)[C@@H](c2c(C)c(C)cc(N)c2F)C3)[C@@H](C)C1 (single isomer, unassigned) [Example 11a] |  | 1300 nM |
| C=CC(=O)N1CCN(c2nc(OC[C@@H]3CCCN3C)nc3c2CC[C@@H](c2cc(O)cc4ccccc24)C3)[C@@H](C)C1 (single isomer, unassigned) [Example 28a] | 1000 nM | 130 nM |
| C=CC(=O)N1CCN(c2ncnc3c2C[C@@H](C)[C@H](c2nc(N)cc(C)c2C(F)(F)F)C3)CC1 (single isomer, unassigned) [Example 8b] | 89 nM | 45 nM |
| C=CC(=O)N1CCN(c2nc(OC[C@@H]3CCCN3C)nc3c2C[C@H](C(C)C)[C@@H](c2nc(N)cc(C)c2C(F)(F)F)C3)[C@@H](C)C1 (single isomer, unassigned) [Example 33b] | 2200 nM | 300 nM |
| C=C(F)C(=O)N1CCN(c2nc(OC[C@@H]3CCCN3C)nc3c2CCC(c2cccc4ccccc24)C3)C[C@@H]1CC#N (single isomer, unassigned) [Example 47d] | 30 nM | < 10 nM |
| C=CC(=O)N1CCN(c2ncnc3c2C[C@H](C)[C@@H](c2c(C)ccc4[nH]ncc24)C3)CC1 (single isomer, unassigned) [Example 15b] | 30000 nM | 8600 nM |
| C#CC[C@H]1CN(c2nc(OC[C@@H]3CCCN3C)nc3c2C[C@H](C)[C@@H](c2cccc4c2CCC4)C3)CCN1C(=O)C=C (single isomer, unassigned) [Example 40b] | 1000 nM | 560 nM |
| C=CC(=O)N1CCN(c2ncnc3c2CC[C@@H](c2cccc4c2CCC4)C3)CC1 (single isomer, unassigned) [Example 6b] |  | > 50000 nM |
| C=C(F)C(=O)N1CCN(c2nc(OC[C@@H]3CCCN3C)nc3c2CCC(c2cccc4ccccc24)C3)CC1CC#N (single isomer, unassigned) [Example 47b] |  | 1500 nM |
| C=CC(=O)N1CCN(c2ncnc3c2CC[C@@H](c2c(C)ccc4c2COC4)C3)CC1 (single isomer, unassigned) [Example 9b] |  | > 50000 nM |

| Structure (SMILES) | EC50 [1] | IC50 [2] |
| --- | --- | --- |
| C=CC(=O)N1CCN(c2nc(OC[C@@H]3CCCN3C)nc3c2CCCC3)CC1 [Example 45a, 1-[4-[2-[[(2S)-1-methylpyrrolidin-2-yl]methoxy]-5,6,7,8-tetrahydroquinazolin-4-yl]piperazin-1-yl]prop-2-en-1-one] |  | > 50000 nM |
| C=CC(=O)N1CCN(c2ncnc3c2CC[C@H](c2cccc4c2CCC4)C3)CC1 (single isomer, unassigned) [Example 6a] |  | 2300 nM |
| C=CC(=O)N1CCN(c2ncnc3c2CC[C@@H](c2c(C)c(C)cc4[nH]cnc24)C3)CC1 (single isomer, unassigned) [Example 10a] |  | 19000 nM |
| C=CC(=O)N1CCN(c2ncnc3c2CC[C@@H](c2c(F)c(N)cc(F)c2C(F)(F)F)C3)CC1 (single isomer, unassigned) [Example 13a] |  | 2000 nM |
| C=CC(=O)N1CCN(c2ncnc3c2CC[C@@H](c2nc(N)ccc2C(F)(F)F)C3)CC1 (single isomer, unassigned) [Example 46a] |  | 2000 nM |
| C=CC(=O)N1CCN(c2ncnc3c2CC[C@H](c2c(C)ccc4c2COC4)C3)CC1 (single isomer, unassigned) [Example 9a] |  | 4200 nM |
| C=CC(=O)N1CCN(c2nc(OC[C@@H]3C[C@H](F)CN3C)nc3c2CC[C@@H](c2cc(O)cc4ccccc24)C3)[C@@H](C)C1 (single isomer, unassigned) [Example 30b] |  | 1200 nM |
| CNC/C=C/C(=O)N1CCN(c2ncnc3c2C[C@H](C)[C@@H](c2c(C)ccc4[nH]ncc24)C3)CC1 (single isomer, unassigned) [Example 19b] |  | > 30000 nM |
| C=CC(=O)N1CCN(c2nc(OC[C@@H]3C[C@@H](F)CN3C)nc3c2C[C@H](C)[C@@H](c2nc(N)cc(C)c2C2CC2)C3)[C@@H](C)C1 (single isomer, unassigned) [Example 24a] |  | > 50000 nM |
| C=CC(=O)N1CCN(c2nc(OCc3cn(C)cn3)nc3c2CCC(c2cc(O)cc4ccccc24)C3)[C@@H](C)C1 (stereo partly drawn) [Example 54a, 1-((3S)-4-(7-(3-hydroxynaphthalen-1-yl)-2-((1-methyl-1H-imidazol-4-yl)methoxy)-5,6,7,8-tetrahydroquinazolin-4-yl)-3-methylpiperazin-1-yl)prop-2-en-1-one] |  | 470 nM |
| C=CC(=O)N1CCN(c2ncnc3c2C[C@H](C)[C@@H](c2nc(N)cc(C)c2C(F)(F)F)C3)CC1 (single isomer, unassigned) [Example 8a] |  | 3500 nM |
| C=CC(=O)N1CCN(c2ncnc3c2C[C@H](C)[C@@H](c2nc(N)ccc2C(F)(F)F)C3)CC1 (single isomer, unassigned) [Example 42a] |  | 2700 nM |
| C=CC(=O)N1CCN(c2nc(OC[C@@H]3COC(=O)N3C)nc3c2CC[C@@H](c2cc(O)cc4ccccc24)C3)[C@@H](C)C1 (single isomer, unassigned) [Example 57b] |  | 14000 nM |
| C=CC(=O)N1CCN(c2nc(OC[C@@H]3C[C@@H](F)CN3C)nc3c2C[C@H](C)[C@@H](c2nc(NC)cc(C)c2C(F)(F)F)C3)[C@@H](C)C1 (single isomer, unassigned) [Example 5a] |  | > 20000 nM |
| C=CC(=O)N1CCN(c2ncnc3c2C[C@H](C)[C@@H](c2cc(CO)ccc2C)C3)CC1 (single isomer, unassigned) [Example 4a] |  | > 50000 nM |
| C=CC(=O)N1CCN(c2ncnc3c2CC[C@@H](c2c(F)c(N)cc(C)c2C(F)(F)F)C3)CC1 (single isomer, unassigned) [Example 27b] |  | 3000 nM |
